Like-named read-outs stand apart in the source and are kept apart here.
Legend:
[1] = Liver microsomal stability experiment (human); type: in vitro ADME
Protocol: A 0.1 M solution of dipotassium phosphate in distilled water (containing 1 mM ethylenediaminetetraacetic acid) was taken. Then the pH was adjusted to 7.4 with a 0.1 M solution of potassium dihydrogen phosphate in distilled water (containing 1 mM ethylenediaminetetraacetic acid).
• Rat: SD Rat Liver Microsomes, Cat. No.: LM-DS-02M, RILD Research Institute for Liver Diseases (Shanghai) Co. Ltd. • Monkey: Cynomolgus Monkey Liver Microsomes, Cat. No.: LM-SXH-02M, RILD Research Institute for Liver Diseases (Shanghai) Co. Ltd. • Human: Pooled Human Liver Microsomes (Mongolian), Cat. No.: LM-R-02M, RILD Research Institute for Liver Diseases (Shanghai) Co. Ltd.
A 10 mM solution of each of the control compound and test compounds was prepared in DMSO. Then 10 μL of the solution was added to 190 μL of acetonitrile to form a 0.5 mM stock solution. 1.5 μL of the 0.5 mM stock solution was measured out, and […] of 20 mg/mL liver microsomes and 479.75 μL of the buffer were added. (The actual preparation amount can be adjusted according to use).
10 mg/mL of reduced coenzyme II (NADPH) was prepared in the buffer. A 96-well plate was placed on ice. Wells corresponding to different time points (0, 10, 30, 60 and 90 min, Non-NADPH) were set for each compound. […] The mixture was analyzed on an AB SCIEX ExionLC-Triple Quad 5500 high-performance liquid chromatograph-mass spectrometer. […]

[2] = Solubility tests of compound of formula I, mixture of crystal forms A and B, and crystal form C at 37° C. (Example 13); type: physicochemical; settings: 37° C.; for solubility at 1 h / solubility at 24 h: thermodynamic from solid; for solubility at 1 h: read-out: Solubility at 1 h; for solubility at 24 h: read-out: Solubility at 24 h
Protocol: An appropriate amount of a test sample was weighed out and added to a vial; 3 mL of a medium (water, SGF, FaSSIF, FeSSIF, or the like) was added; the mixture was stirred at 37° C.; […]; centrifugation was performed at 12000 rpm for 10 min; the supernatant was diluted with 50% aqueous acetonitrile solution to an appropriate multiple; and the concentration of the supernatant was determined.
Control and linearity: 10 mg of the compound of formula I was weighed out and added to a 50 mL volumetric flask, 50% aqueous acetonitrile solution was added for dissolution, and the mixture was diluted to volume. Two parts were prepared in parallel. The control was taken and diluted with 50% aqueous acetonitrile solution to 100 μg/mL, 50 μg/mL, and 10 μg/mL, 5 μL of the sample was injected, and a standard curve was plotted.

[3] = Stability tests of compound of formula I and its monohydrochloride, phosphate and maleate (Example 4); type: physicochemical
Protocol: The stability of the compound of formula I, the monohydrochloride of the compound of formula I in Example 1, the phosphate of the compound of formula I in Example 2, and the maleate of the compound of formula I in Example 3 were investigated.
Stability investigation conditions: 40° C./75% RH-closed, 40° C./75% RH-open, and 60° C.-closed; stability investigation content: changes in related substances and crystal forms.
Detection of related substances: about 6-7 mg of a sample was separately weighed out and added to a 10 mL volumetric flask; 50% aqueous acetonitrile solution was added for dissolution; the mixture was diluted to volume; and 10 μL of the sample was injected.

[4] = tested on: Streptococcus-induced rheumatoid arthritis; assay: Streptococcus-induced rheumatoid arthritis (RA) model in rats; type: in vivo; settings: female Lewis rats, 15 mpk intragastric daily for 25 days
Protocol: In the experiment, 6- to 9-week-old female Lewis rats (Beijing Vital River) were used. Each group consisted of 6 rats, and they were given the cell wall peptidoglycan complexes of Streptococcus and several other species of bacteria by intraperitoneal administration (2-3 mg per rat) on D1, and were given the control compound (15 mpk) and the compound of formula I (15 mpk) by intragastric administration daily for 25 consecutive days. The arthritis in rats was scored in different phases. The scoring criteria are as follows: […] The scoring criteria are as follows: 0 points, no redness and swelling; 1 point, 1-2 red and swollen interphalangeal joints; 2 points, 3-4 red and swollen interphalangeal joints; 3 points, more than 4 red and swollen interphalangeal joints; 4 points, severe redness and swelling in toes or fingers to ankle joints or wrist joints.

Question: With `COc1cc(C)c2[nH]ccc2c1CN1CC[C@H](OCC2CC2)C[C@H]1c1ccc(C(=O)O)cc1` [Compound of formula I] as the compound, how does the “MMS (human) Remaining (T = 90 min)” value ([1]; human liver microsomes, 90 min) read?
Answer: 91.04%

Question: What about the “Liver microsomal stability (in words)” value ([1]; rat, monkey and human liver microsomes) of the same compound?
Answer: significant liver microsomal stability

Question: And the “Final pH” value ([2]; FaSSIF)?
Answer: 6.44

Question: And the “Final pH” value ([2]; FessIF)?
Answer: 5.03

Question: What about the “Final pH” value ([2]; SGF) of the same compound?
Answer: 1.74

Question: And the “Final pH” value ([2]; Water)?
Answer: 8.73

Question: What about the solubility at 1 h ([2]; simulated gastric fluid, SGF) of the same compound?
Answer: 5510 µg/mL

Question: And the solubility at 24 h ([2]; simulated gastric fluid, SGF)?
Answer: 5480 µg/mL

Question: And the solubility at 1 h ([2]; FassIF)?
Answer: 220 µg/mL

Question: What about the solubility at 24 h ([2]; FassIF) of the same compound?
Answer: 190 µg/mL

Question: What about the solubility at 1 h ([2]; FessIF) of the same compound?
Answer: 370 µg/mL

Question: What about the solubility at 24 h ([2]; FessIF) of the same compound?
Answer: 350 µg/mL

Question: And the solubility at 1 h ([2]; Water)?
Answer: 370 µg/mL

Question: And the solubility at 24 h ([2]; Water)?
Answer: 310 µg/mL

Question: What about the “Stability (conclusion in words from Table 7)” value ([3]; 40° C./75% RH closed/open and 60° C. closed, 2 wks, listed as compound of formula I) of the same compound?
Answer: stable

Question: And the “Maximum single impurity %” value ([3]; 40° C./75% RH-closed-2 wks)?
Answer: 0.16%

Question: And the Purity % ([3]; 40° C./75% RH-closed-2 wks)?
Answer: 99.23%

Question: And the Total impurity % ([3]; 40° C./75% RH-closed-2 wks)?
Answer: 0.77%

Question: What about the “Maximum single impurity %” value ([3]; 40° C./75% RH-open-2 wks) of the same compound?
Answer: 0.17%

Question: What about the Purity % ([3]; 40° C./75% RH-open-2 wks) of the same compound?
Answer: 99.24%

Question: And the Total impurity % ([3]; 40° C./75% RH-open-2 wks)?
Answer: 0.76%

Question: And the “Maximum single impurity %” value ([3]; 60° C.-closed-2 wks)?
Answer: 0.33%

Question: What about the Purity % ([3]; 60° C.-closed-2 wks) of the same compound?
Answer: 98.95%

Question: What about the Total impurity % ([3]; 60° C.-closed-2 wks) of the same compound?
Answer: 1.05%

Question: And the “Maximum single impurity %” value ([3]; Initial)?
Answer: 0.10%

Question: And the Purity % ([3]; Initial)?
Answer: 99.28%

Question: And the Total impurity % ([3]; Initial)?
Answer: 0.72%

Question: What about the “Arthritis score (in words, FIG. 23)” value [4] of the same compound?
Answer: can improve the arthritis score

Question: What about the “Effect on arthritis score versus control compound (in words)” value [4] of the same compound?
Answer: significantly better effect than that of the control compound
